The values below are quoted from earlier work in patent US20220040156A1, “COMPOSITIONS, DEVICES AND METHODS FOR TREATING OBSESSIVE-COMPULSIVE DISORDER” (CENTRE FOR DIGESTIVE DISEASES, priority 2017, published 2022).

This data set relates to children with autism / autistic symptoms. Conditions: reports of Sandler et al. 2000, Rodakis 2015 and unreferenced observations.

Consider `CC1(C)S[C@@H]2[C@H](NC(=O)[C@H](N)c3ccc(O)cc3)C(=O)N2[C@H]1C(=O)O` [amoxycillin], for which the “effect on behavioural changes / autistic symptoms” value is recorded as “reversed almost completely”.
For `CN[C@H](CC(C)C)C(=O)N[C@H]1C(=O)N[C@@H](CC(N)=O)C(=O)N[C@H]2C(=O)N[C@H]3C(=O)N[C@H](C(=O)N[C@H](C(=O)O)c4cc(O)cc(O)c4-c4cc3ccc4O)[C@H](O)c3ccc(c(Cl)c3)Oc3cc2cc(c3O[C@@H]2O[C@H](CO)[C@@H](O)[C@H](O)[C@H]2O[C@H]2C[C@](C)(N)[C@H](O)[C@H](C)O2)Oc2ccc(cc2Cl)[C@H]1O` [vancomycin], the “effect on behavioural changes / autistic symptoms” value is “reversal of behavioural changes and progress to normality within a few weeks”.
